Four compounds from the kinase profiling compilation of Christmann-Franck et al. (2016) can be followed below.

Among the targets are LATS2 (human) (UniProt Q9NRM7); TNK2 (human) (UniProt Q07912); CDK2 (human) (UniProt P24941); PRKCE (human) (UniProt Q02156); RPS6KA5 KD2 (human) (UniProt O75582); BRSK2 (human) (UniProt Q8IWQ3); BMPR1B (human) (UniProt O00238); LCK (human) (UniProt P06239); FRK (human) (UniProt P42685); CDK16 (human) (UniProt Q00536); MAPK3 (human) (UniProt P27361); CAMK1G (human) (UniProt Q96NX5); AAK1 (human) (UniProt Q2M2I8); CLK4 (human) (UniProt Q9HAZ1); STK33 (human) (UniProt Q9BYT3); MINK1 (human) (UniProt Q8N4C8); RPS6KA4 KD2 (human) (UniProt O75676); MAPK8 (human) (UniProt P45983); SRPK2 (human) (UniProt P78362); MAPKAPK2 (human) (UniProt P49137); MUSK (human) (UniProt O15146); RPS6KA1 KD2 (human) (UniProt Q15418); CDK7 (human) (UniProt P50613); DCLK3 (human) (UniProt Q9C098); WEE2 (human) (UniProt P0C1S8); CDC42BPG (human) (UniProt Q6DT37); ITK (human) (UniProt Q08881); STK24 (human) (UniProt Q9Y6E0); TYRO3 (human) (UniProt Q06418); FGFR3 (human) (UniProt P22607); PRKAA1 (human) (UniProt Q13131); PRKD3 (human) (UniProt O94806); PRKD1 (human) (UniProt Q15139); MAP4K3 (human) (UniProt Q8IVH8); BLK (human) (UniProt P51451); MLTK (human) (UniProt Q9NYL2); TIE1 (human) (UniProt P35590); PRKX (human) (UniProt P51817); ACVR2B (human) (UniProt Q13705); BMP2K (human) (UniProt Q9NSY1); PRKCD (human) (UniProt Q05655); CIT (human) (UniProt O14578).

Assay in all cases: KINOMEscan competition binding
What all share (conditions): compound 10.0 µM

Chain of DCLK3 (human) (Q9C098 whole entry, looked up): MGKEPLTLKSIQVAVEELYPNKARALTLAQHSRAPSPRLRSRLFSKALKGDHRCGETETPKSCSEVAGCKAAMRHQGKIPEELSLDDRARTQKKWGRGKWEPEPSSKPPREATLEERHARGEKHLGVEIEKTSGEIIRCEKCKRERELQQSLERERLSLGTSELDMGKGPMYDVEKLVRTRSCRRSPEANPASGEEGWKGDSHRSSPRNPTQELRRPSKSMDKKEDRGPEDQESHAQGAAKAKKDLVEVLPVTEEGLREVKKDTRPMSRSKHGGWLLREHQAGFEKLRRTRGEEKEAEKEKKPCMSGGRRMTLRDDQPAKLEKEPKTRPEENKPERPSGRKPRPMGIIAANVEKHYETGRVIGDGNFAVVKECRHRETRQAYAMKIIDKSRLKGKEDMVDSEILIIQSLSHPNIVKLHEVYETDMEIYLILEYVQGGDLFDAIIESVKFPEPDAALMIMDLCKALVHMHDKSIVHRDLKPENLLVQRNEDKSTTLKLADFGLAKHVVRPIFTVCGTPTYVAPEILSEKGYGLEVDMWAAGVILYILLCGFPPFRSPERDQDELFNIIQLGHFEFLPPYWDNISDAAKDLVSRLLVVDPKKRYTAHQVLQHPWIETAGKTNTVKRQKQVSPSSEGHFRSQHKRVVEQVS
Chain of RPS6KA4 KD2 (human) (O75676 whole entry, looked up): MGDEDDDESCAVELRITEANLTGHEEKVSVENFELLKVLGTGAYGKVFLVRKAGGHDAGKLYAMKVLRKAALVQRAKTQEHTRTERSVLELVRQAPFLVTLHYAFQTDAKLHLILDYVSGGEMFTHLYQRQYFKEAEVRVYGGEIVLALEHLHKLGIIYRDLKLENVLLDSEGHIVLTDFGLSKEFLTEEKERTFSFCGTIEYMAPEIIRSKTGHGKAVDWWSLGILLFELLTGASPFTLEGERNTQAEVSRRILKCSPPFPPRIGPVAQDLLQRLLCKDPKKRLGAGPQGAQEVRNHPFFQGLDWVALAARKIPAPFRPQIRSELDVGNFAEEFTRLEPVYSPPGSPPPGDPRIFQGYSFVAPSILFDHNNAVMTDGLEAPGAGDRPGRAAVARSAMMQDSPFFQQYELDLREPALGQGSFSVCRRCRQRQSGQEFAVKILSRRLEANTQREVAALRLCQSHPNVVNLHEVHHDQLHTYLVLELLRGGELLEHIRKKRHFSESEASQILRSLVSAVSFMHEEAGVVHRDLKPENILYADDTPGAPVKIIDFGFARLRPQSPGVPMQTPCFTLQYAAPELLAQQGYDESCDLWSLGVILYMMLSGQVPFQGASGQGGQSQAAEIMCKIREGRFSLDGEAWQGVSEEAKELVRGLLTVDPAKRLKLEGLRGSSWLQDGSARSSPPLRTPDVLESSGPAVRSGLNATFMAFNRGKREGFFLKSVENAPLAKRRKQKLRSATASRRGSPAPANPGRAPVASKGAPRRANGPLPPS
Chain of CIT (human) (O14578 whole entry, looked up): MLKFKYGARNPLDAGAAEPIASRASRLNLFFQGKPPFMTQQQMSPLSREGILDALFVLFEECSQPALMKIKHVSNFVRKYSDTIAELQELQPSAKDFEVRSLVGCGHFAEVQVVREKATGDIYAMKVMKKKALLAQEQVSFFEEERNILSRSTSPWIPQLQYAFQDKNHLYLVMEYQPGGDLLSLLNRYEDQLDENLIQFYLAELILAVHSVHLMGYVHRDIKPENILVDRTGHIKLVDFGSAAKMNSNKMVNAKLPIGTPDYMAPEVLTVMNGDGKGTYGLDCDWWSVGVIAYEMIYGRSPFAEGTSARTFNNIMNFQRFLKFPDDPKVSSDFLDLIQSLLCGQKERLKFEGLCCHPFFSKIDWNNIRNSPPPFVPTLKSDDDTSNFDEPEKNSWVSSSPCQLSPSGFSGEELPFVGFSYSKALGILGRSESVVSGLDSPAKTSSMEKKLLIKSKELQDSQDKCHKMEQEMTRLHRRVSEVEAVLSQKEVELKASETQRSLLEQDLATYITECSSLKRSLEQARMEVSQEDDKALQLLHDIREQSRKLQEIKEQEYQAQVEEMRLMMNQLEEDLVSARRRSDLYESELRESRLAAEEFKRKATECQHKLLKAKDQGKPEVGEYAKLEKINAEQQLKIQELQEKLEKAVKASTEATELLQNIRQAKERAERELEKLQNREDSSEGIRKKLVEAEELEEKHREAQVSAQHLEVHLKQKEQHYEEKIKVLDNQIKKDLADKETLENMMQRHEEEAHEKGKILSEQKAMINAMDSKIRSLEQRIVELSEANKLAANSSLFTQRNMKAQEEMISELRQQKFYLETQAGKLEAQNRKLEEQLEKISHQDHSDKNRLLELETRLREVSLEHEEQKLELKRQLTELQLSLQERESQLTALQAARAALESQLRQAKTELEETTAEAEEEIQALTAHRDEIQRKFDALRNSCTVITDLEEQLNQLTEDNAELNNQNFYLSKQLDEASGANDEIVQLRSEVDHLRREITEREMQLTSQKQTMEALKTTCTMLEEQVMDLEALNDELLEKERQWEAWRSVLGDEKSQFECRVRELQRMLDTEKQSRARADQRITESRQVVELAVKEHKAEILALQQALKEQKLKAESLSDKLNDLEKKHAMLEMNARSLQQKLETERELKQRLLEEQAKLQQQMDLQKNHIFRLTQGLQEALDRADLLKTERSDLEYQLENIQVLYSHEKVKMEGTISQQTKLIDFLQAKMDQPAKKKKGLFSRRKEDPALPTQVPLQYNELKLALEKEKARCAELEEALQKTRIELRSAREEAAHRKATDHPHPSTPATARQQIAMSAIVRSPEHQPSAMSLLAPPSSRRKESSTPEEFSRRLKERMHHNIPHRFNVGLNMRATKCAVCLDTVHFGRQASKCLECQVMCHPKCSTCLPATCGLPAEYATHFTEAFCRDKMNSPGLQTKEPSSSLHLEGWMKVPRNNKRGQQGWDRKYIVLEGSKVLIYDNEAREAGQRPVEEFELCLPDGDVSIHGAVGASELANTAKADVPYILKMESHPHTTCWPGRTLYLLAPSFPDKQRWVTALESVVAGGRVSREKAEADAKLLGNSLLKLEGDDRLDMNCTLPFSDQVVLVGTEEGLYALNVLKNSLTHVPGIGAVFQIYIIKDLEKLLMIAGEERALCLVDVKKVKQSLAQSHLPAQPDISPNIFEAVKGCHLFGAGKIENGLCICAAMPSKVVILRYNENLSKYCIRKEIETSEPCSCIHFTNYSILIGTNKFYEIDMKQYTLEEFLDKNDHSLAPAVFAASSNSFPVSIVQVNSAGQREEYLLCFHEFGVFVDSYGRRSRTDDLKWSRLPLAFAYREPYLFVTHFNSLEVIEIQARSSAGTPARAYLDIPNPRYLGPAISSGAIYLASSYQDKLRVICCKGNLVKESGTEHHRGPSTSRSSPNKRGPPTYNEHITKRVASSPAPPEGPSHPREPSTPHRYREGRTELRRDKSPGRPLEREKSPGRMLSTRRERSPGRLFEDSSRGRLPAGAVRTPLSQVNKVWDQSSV
Chain of BMP2K (human) (Q9NSY1 whole entry, looked up): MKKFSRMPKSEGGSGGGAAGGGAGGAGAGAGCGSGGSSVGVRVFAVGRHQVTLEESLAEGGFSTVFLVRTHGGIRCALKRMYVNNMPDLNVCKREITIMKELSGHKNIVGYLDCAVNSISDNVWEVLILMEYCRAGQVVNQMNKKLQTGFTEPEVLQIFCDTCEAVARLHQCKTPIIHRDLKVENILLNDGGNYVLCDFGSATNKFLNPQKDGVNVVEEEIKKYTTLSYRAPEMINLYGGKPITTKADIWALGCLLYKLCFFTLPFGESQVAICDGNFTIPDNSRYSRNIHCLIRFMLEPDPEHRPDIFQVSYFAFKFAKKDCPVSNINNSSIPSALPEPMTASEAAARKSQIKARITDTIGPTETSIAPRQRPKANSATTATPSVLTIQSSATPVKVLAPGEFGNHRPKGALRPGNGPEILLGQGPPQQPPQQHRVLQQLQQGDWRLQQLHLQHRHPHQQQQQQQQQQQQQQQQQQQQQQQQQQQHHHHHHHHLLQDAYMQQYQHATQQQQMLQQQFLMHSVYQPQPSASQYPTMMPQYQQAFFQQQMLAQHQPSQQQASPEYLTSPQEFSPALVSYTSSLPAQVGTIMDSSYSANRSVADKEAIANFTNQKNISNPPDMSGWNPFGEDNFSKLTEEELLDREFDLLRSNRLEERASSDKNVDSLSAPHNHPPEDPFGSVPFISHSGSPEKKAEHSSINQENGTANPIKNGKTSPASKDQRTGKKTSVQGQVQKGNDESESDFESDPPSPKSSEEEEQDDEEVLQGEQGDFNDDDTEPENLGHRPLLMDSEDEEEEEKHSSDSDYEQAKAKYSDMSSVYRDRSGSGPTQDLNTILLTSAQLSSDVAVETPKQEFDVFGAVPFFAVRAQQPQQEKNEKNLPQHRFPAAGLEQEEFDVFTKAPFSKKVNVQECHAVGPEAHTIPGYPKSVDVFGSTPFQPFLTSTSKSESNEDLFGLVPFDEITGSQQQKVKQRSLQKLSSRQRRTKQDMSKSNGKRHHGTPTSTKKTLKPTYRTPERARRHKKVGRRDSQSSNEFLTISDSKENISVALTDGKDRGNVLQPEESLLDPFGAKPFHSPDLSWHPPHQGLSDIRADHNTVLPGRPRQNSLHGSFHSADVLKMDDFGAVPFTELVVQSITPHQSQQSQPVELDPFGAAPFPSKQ
Chain of CLK4 (human) (Q9HAZ1 whole entry, looked up): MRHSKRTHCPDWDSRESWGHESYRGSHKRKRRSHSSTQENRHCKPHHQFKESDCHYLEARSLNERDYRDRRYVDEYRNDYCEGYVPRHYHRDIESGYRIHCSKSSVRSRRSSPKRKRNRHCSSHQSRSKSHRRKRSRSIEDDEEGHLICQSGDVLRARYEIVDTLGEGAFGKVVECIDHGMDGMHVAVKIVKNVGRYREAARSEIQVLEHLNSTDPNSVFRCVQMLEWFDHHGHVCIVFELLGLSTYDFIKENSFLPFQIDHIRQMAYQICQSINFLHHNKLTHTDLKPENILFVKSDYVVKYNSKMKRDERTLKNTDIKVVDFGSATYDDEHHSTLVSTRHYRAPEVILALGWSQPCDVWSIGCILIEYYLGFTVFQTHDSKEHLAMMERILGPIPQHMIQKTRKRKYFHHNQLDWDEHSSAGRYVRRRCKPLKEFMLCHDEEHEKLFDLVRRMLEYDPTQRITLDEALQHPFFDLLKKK

Turning to `COc1cc(N2CCN(C)CC2)ccc1Nc1ncc2c(n1)Nc1ccccc1NC2=O`, the kinase still bound, per cent of control at LATS2 (human) was 89%; at TNK2 (human), 56%; on CDK2 (human), 100%; on PRKCE (human), 93%; at RPS6KA5 KD2 (human), 92%; at BRSK2 (human) it was 100%. Also, the kinase still bound, per cent of control was 19% on BMPR1B (human); 28% at LCK (human); 93% at FRK (human); 94% on CDK16 (human); 93% on MAPK3 (human); 100% at CAMK1G (human). Also, the kinase still bound, per cent of control is 75% at AAK1 (human); 94% on CLK4 (human); 51% on STK33 (human); 71% at MINK1 (human); 31% at RPS6KA4 KD2 (human); 73% at MAPK8 (human). The kinase still bound, per cent of control was 93% at SRPK2 (human); 96% at MAPKAPK2 (human); 100% on MUSK (human); 43% at RPS6KA1 KD2 (human); 100% at CDK7 (human); 98% at DCLK3 (human). Besides, the kinase still bound, per cent of control on WEE2 (human) is 93%; on CDC42BPG (human) it was 100%; on ITK (human) it was 100%; on STK24 (human) it was 95%; on TYRO3 (human), 100%; at FGFR3 (human) it was 97%. Also, the kinase still bound, per cent of control on PRKAA1 (human) amounted to 87%; at PRKD3 (human), 66%; at PRKD1 (human) it was 64%; at MAP4K3 (human) it was 100%; at BLK (human) it was 49%; at MLTK (human), 100%. For the same compound, the kinase still bound, per cent of control on TIE1 (human) was found to be 24%; on PRKX (human), 100%; on ACVR2B (human), 52%; on BMP2K (human), 72%; at PRKCD (human), 100%; on CIT (human), 47%.
As for `N=C1NC(=O)/C(=C/c2ccc(-c3ccc(C(N)=O)cc3O)o2)S1`, the kinase still bound, per cent of control was 19% at CDK2 (human); 17% at BRSK2 (human); 0.65% on CDK16 (human); 15% at AAK1 (human); 6.4% at CLK4 (human); 0.75% at RPS6KA4 KD2 (human). Besides, the kinase still bound, per cent of control on MAPKAPK2 (human) turned out to be 25%; on CDK7 (human) it was 1%; on DCLK3 (human), 2.7%; on ACVR2B (human) it was 22%; on CIT (human) it was 19%.
As to `CN1C(=O)[C@H]2CCC[C@H]2N(C2CCCC2)c2nc(Nc3ccc(C(N)=O)cc3)ncc21`, the kinase still bound, per cent of control on CDK16 (human) was found to be 18%; at CLK4 (human), 5.2%; on MINK1 (human) it was 1.8%; at RPS6KA4 KD2 (human), 0.55%; at MAPK8 (human), 29%; at RPS6KA1 KD2 (human), 7.6%. Moreover, the kinase still bound, per cent of control at CDK7 (human) was 3.7%; on DCLK3 (human) it was 1.4%; on STK24 (human) it was 16%; on TYRO3 (human), 31%; on PRKAA1 (human), 31%; at BMP2K (human) it was 12%. In addition, at CIT (human), the kinase still bound, per cent of control came to 28%.
Turning to `CS(=O)(=O)Nc1ccc(-c2cncc(/C=C3\SC(=N)NC3=O)c2)cc1`, the kinase still bound, per cent of control is 28% at BRSK2 (human); 10% at BMPR1B (human); 32% at AAK1 (human); 18% at STK33 (human); 4.4% on MINK1 (human); 0.9% on DCLK3 (human). The kinase still bound, per cent of control stood at 24% on PRKD3 (human); 22% on PRKD1 (human); 32% at MAP4K3 (human); 7.6% at MLTK (human); 4.2% on ACVR2B (human); 22% on BMP2K (human). This compound returned a kinase still bound, per cent of control on CIT (human) of 0.8%.
